Measured values reported in publication PMC4206749 (Toxicological Research, 2014).

How the values were obtained:
[1] = test system: Escherichia coli strain (WP2 uvrA); assay: Bacterial reverse mutation assay; format: cell-based; conditions: E. coli
[2] = test system: Salmonella typhimurium strain TA1535; assay: Bacterial reverse mutation assay; format: cell-based
[3] = test system: 2 Gy irradiated Chinese hamster ovary (CHO)-K1 cells; conditions: 2 Gy irradiated CHO-K1 cells; cited from earlier work
[4] = test system: L5178Y Tk^+/− mouse lymphoma cells; assay: In vitro comet assay; format: cell-based; conditions: 4 hr
[5] = test system: Salmonella typhimurium strain TA100; assay: Bacterial reverse mutation assay; format: cell-based

## Oc1ccc(-c2ccc3cc(O)ccc3c2)c(O)c1 [HS-1793, 4-(6-hydroxy-2-naphthyl)-1,3-benzenediol]
[1]; with S9 activation, 78.1 μg/plate
  Number of reverse mutants/plate (Mean ± SD): 39 ± 3 reverse mutants/plate
[1]; with S9 activation, 156.3 μg/plate
  Number of reverse mutants/plate (Mean ± SD): 40 ± 2 reverse mutants/plate
[1]; with S9 activation, 312.5 μg/plate
  Number of reverse mutants/plate (Mean ± SD): 42 ± 3 reverse mutants/plate
[1]; with S9 activation, 625 μg/plate
  Number of reverse mutants/plate (Mean ± SD): 38 ± 3 reverse mutants/plate
[1]; with S9 activation, 1,250 μg/plate
  Number of reverse mutants/plate (Mean ± SD): 37 ± 2 reverse mutants/plate
[1]; with S9 activation, 2,500 μg/plate
  Number of reverse mutants/plate (Mean ± SD): 43 ± 3 reverse mutants/plate
[1]; with S9 activation, 5,000 μg/plate
  Number of reverse mutants/plate (Mean ± SD): 40 ± 2 reverse mutants/plate
[1]; without S9 activation, 78.1 μg/plate
  Number of reverse mutants/plate (Mean ± SD): 39 ± 3 reverse mutants/plate
[1]; without S9 activation, 156.3 μg/plate
  Number of reverse mutants/plate (Mean ± SD): 33 ± 3 reverse mutants/plate
[1]; without S9 activation, 312.5 μg/plate
  Number of reverse mutants/plate (Mean ± SD): 37 ± 2 reverse mutants/plate
[1]; without S9 activation, 625 μg/plate
  Number of reverse mutants/plate (Mean ± SD): 36 ± 2 reverse mutants/plate
[1]; without S9 activation, 1,250 μg/plate
  Number of reverse mutants/plate (Mean ± SD): 36 ± 3 reverse mutants/plate
[1]; without S9 activation, 2,500 μg/plate
  Number of reverse mutants/plate (Mean ± SD): 32 ± 1 reverse mutants/plate
[1]; without S9 activation, 5,000 μg/plate
  Number of reverse mutants/plate (Mean ± SD): 36 ± 2 reverse mutants/plate
[2]; TA1535, with S9 activation, 78.1 μg/plate
  Number of reverse mutants/plate (Mean ± SD): 24 ± 3 reverse mutants/plate
[2]; TA1535, with S9 activation, 156.3 μg/plate
  Number of reverse mutants/plate (Mean ± SD): 22 ± 3 reverse mutants/plate
[2]; TA1535, with S9 activation, 312.5 μg/plate
  Number of reverse mutants/plate (Mean ± SD): 23 ± 4 reverse mutants/plate
[2]; TA1535, with S9 activation, 625 μg/plate
  Number of reverse mutants/plate (Mean ± SD): 21 ± 4 reverse mutants/plate
[2]; TA1535, with S9 activation, 1,250 μg/plate
  Number of reverse mutants/plate (Mean ± SD): 21 ± 3 reverse mutants/plate
[2]; TA1535, with S9 activation, 2,500 μg/plate
  Number of reverse mutants/plate (Mean ± SD): 20 ± 2 reverse mutants/plate
[2]; TA1535, with S9 activation, 5,000 μg/plate
  Number of reverse mutants/plate (Mean ± SD): 21 ± 6 reverse mutants/plate
[2]; TA1535, without S9 activation, 78.1 μg/plate
  Number of reverse mutants/plate (Mean ± SD): 15 ± 2 reverse mutants/plate
[2]; TA1535, without S9 activation, 156.3 μg/plate
  Number of reverse mutants/plate (Mean ± SD): 17 ± 2 reverse mutants/plate
[2]; TA1535, without S9 activation, 312.5 μg/plate
  Number of reverse mutants/plate (Mean ± SD): 18 ± 2 reverse mutants/plate
[2]; TA1535, without S9 activation, 625 μg/plate
  Number of reverse mutants/plate (Mean ± SD): 17 ± 5 reverse mutants/plate
[2]; TA1535, without S9 activation, 1,250 μg/plate
  Number of reverse mutants/plate (Mean ± SD): 17 ± 2 reverse mutants/plate
[2]; TA1535, without S9 activation, 2,500 μg/plate
  Number of reverse mutants/plate (Mean ± SD): 18 ± 4 reverse mutants/plate
[2]; TA1535, without S9 activation, 5,000 μg/plate
  Number of reverse mutants/plate (Mean ± SD): 17 ± 3 reverse mutants/plate
[3]
  ROS and cellular DNA damage: significantly decreased
[4]; S9 Mix (+), 3.9 μg/ml
  % DNA in tail: 0.98 ± 0.13%
  Olive moment: 0.41 ± 0.04 μm
  Tail length: 0.86 ± 0.04 μm
  Tail moment: 0.04 ± 0.01 μm
[4]; S9 Mix (+), 7.8 μg/ml
  % DNA in tail: 1.16 ± 0.08%
  Olive moment: 0.56 ± 0.06 μm
  Tail length: 0.95 ± 0.13 μm
  Tail moment: 0.06 ± 0.01 μm
[4]; S9 Mix (+), 15.5 μg/ml
  % DNA in tail: 1.42 ± 0.16%
  Olive moment: 0.78 ± 0.12 μm
  Tail length: 1.04 ± 0.06 μm
  Tail moment: 0.13 ± 0.02 μm
[4]; S9 Mix (+), 31 μg/ml
  % DNA in tail: 1.58 ± 0.11%
  Olive moment: 0.80 ± 0.17 μm
  Tail length: 1.17 ± 0.07 μm
  Tail moment: 0.09 ± 0.02 μm
[4]; S9 Mix (+), 62 μg/ml
  % DNA in tail: 1.65 ± 0.09%
  Olive moment: 0.85 ± 0.15 μm
  Tail length: 1.20 ± 0.03 μm
  Tail moment: 0.15 ± 0.01 μm
[4]; S9 Mix (−), 3.9 μg/ml
  % DNA in tail: 0.93 ± 0.21%
  Olive moment: 0.42 ± 0.03 μm
  Tail length: 1.49 ± 0.36 μm
  Tail moment: 0.03 ± 0.01 μm
[4]; S9 Mix (−), 7.8 μg/ml
  % DNA in tail: 1.09 ± 0.37%
  Olive moment: 0.62 ± 0.05 μm
  Tail length: 1.98 ± 0.27 μm
  Tail moment: 0.07 ± 0.02 μm
[4]; S9 Mix (−), 15.5 μg/ml
  % DNA in tail: 1.61 ± 0.49%
  Olive moment: 0.75 ± 0.07 μm
  Tail length: 2.11 ± 0.41 μm
  Tail moment: 0.13 ± 0.03 μm
[4]; S9 Mix (−), 31 μg/ml
  % DNA in tail: 2.13 ± 0.36%
  Olive moment: 0.98 ± 0.09 μm
  Tail length: 2.75 ± 0.37 μm
  Tail moment: 0.16 ± 0.03 μm
[4]; S9 Mix (−), 62 μg/ml
  % DNA in tail: 2.52 ± 0.34%
  Olive moment: 1.01 ± 0.07 μm
  Tail length: 2.82 ± 0.46 μm
  Tail moment: 0.21 ± 0.05 μm
[4]; presence or absence of metabolic activation
  % DNA in the tail, tail length, TM, or OM versus vehicle: No significant differences
[5]; TA100, with S9 activation, 78.1 μg/plate
  Number of reverse mutants/plate (Mean ± SD): 116 ± 13 reverse mutants/plate
[5]; TA100, with S9 activation, 156.3 μg/plate
  Number of reverse mutants/plate (Mean ± SD): 109 ± 8 reverse mutants/plate
[5]; TA100, with S9 activation, 312.5 μg/plate
  Number of reverse mutants/plate (Mean ± SD): 114 ± 4 reverse mutants/plate
[5]; TA100, with S9 activation, 625 μg/plate
  Number of reverse mutants/plate (Mean ± SD): 106 ± 19 reverse mutants/plate
[5]; TA100, with S9 activation, 1,250 μg/plate
  Number of reverse mutants/plate (Mean ± SD): 108 ± 14 reverse mutants/plate
[5]; TA100, with S9 activation, 2,500 μg/plate
  Number of reverse mutants/plate (Mean ± SD): 118 ± 11 reverse mutants/plate
[5]; TA100, with S9 activation, 5,000 μg/plate
  Number of reverse mutants/plate (Mean ± SD): 106 ± 9 reverse mutants/plate
[5]; TA100, without S9 activation, 78.1 μg/plate
  Number of reverse mutants/plate (Mean ± SD): 121 ± 8 reverse mutants/plate
[5]; TA100, without S9 activation, 156.3 μg/plate
  Number of reverse mutants/plate (Mean ± SD): 117 ± 11 reverse mutants/plate
[5]; TA100, without S9 activation, 312.5 μg/plate
  Number of reverse mutants/plate (Mean ± SD): 116 ± 9 reverse mutants/plate
[5]; TA100, without S9 activation, 625 μg/plate
  Number of reverse mutants/plate (Mean ± SD): 124 ± 6 reverse mutants/plate
[5]; TA100, without S9 activation, 1,250 μg/plate
  Number of reverse mutants/plate (Mean ± SD): 107 ± 12 reverse mutants/plate
[5]; TA100, without S9 activation, 2,500 μg/plate
  Number of reverse mutants/plate (Mean ± SD): 108 ± 6 reverse mutants/plate
[5]; TA100, without S9 activation, 5,000 μg/plate
  Number of reverse mutants/plate (Mean ± SD): 119 ± 12 reverse mutants/plate
